The values that follow come from paper PMC12567141, “Design, Synthesis and Biological Evaluation of Pyrazolopyrimidine Derivatives as Aryl Hydrocarbon Receptor Antagonists for Colorectal Cancer Immunotherapy” (Pharmaceutics, 2025).

As a reminder, the IC50 is the concentration that inhibits the measured activity by half.

The test system of one data set is MC38 tumor. In words: In vivo therapy, MC38 syngeneic model. Details: species or system mice. As to conditions: MC38 model, comparison of 7k and 3′,4′-dimethoxyflavone, 10 mg/kg oral once a day, 18 days. Here is the method:
In vivo experiments were conducted using 6-week-old male immunocompetent BALB/c and C57BL/6 with 18–20 g body weight (Orient Bio Inc., Seungnam, Republic of Korea). All animal experimental procedures were maintained and used in accordance with the Guidelines for the Care and Use of Laboratory Animals of the Institute of Laboratory Animal Center, Daegu-Gyeongbuk Medical Innovation Foundation (K-MEDI hub). The animal studies were conducted after approval by the institutional reviewer board on the Ethics of Animal Experiments of the Daegu-Gyeongbuk Medical Innovation Foundation (approval number: KMEDI-24041103-01).
Study 1: Antitumor activity of 7k alone in mice with either CT26 syngeneic model or MC38 syngeneic model. Mice were subcutaneously challenged with 5 × 10^5 either MC38 or CT26 cells. […]
The 7k was dissolved in solution including 5% DMSO, 55% DW, and 40% PEG. Tumor size was measured with a caliper at the indicated time points, and tumor volume (mm^3) was calculated using the following formula, tumor volume (mm^3) = d2 × D/2, where d and D are the shortest and longest diameters in mm, respectively.

Data set [1] concerns the target T1, AhR (Danio rerio, UniProt Q9YGV3). More on the design: method as in PMID 34223158, PMID 10913616, PMID 31358358. As to conditions: reported AhR antagonists, Figure 2; cited from earlier work.
Data set [2] relates to AhR. In words: AhR antagonist screening using Tg(cyp1a:egfp) zebrafish. In kind it is in vivo. Details: key to AhR Antagonist Activity at 100 nM: - no inhibition; + weak; ++ mild; +++ moderate; ++++ high; +++++ very high. As to conditions: for AhR Antagonist Activity at 100 nM: extent of GFP reduction in Tg(cyp1a:egfp) zebrafish compared to the TCDD (2 nM) control, 48 h; for AhR antagonistic activity in zebrafish, in words: Tg(cyp1a:egfp) zebrafish, EGFP readout. Here is the method:
At 30 hpf, Tg(cyp1a:egfp) embryos were placed in a 2-mL screw-capped glass vial with five embryos per vial. Each vial contained 1 mL of E3 media (5 mM NaCl, 0.17 mM KCl, 0.33 mM CaCl2·2H2O and 0.4 mM MgCl2·6H2O, pH 7.2) and supplemented with 2 nM TCDD (1746-01-6; AccuStandard Inc., New Haven, NH, USA) dissolved in DMSO. The compounds were subsequently diluted and individually introduced into the vials, achieving a final concentration of 0.1% DMSO. The embryos were then incubated for 48 h and then embryonic EGFP expression was evaluated using a fluorescent stereomicroscope (SteREO Discovery V8; Zeiss, Oberkochen, BW, Germany). As a positive control, StemRegenin1 (72342, […] Technologies, Vancouver, BC, Canada) was employed.
To evaluate AhR antagonistic activity, we conducted an AhR antagonist assay using transgenic zebrafish. Zebrafish have garnered significant attention as model organisms for drug discovery because they share metabolic pathways with mammals. […] Therefore, we synthesized more meta substituted phenyl derivatives. […] We also synthesized heteroaromatic derivatives including pyrimidine and pyridine at 5-position; however, their activities were decreased.

Data set [3] addresses T1, AhR. The data set is described as follows: IC50 determination, Cyp1a dual luciferase reporter assay in transfected COS-7 cells. The format is cell-based. As to conditions: AhR2/ARNT-1c/Cyp1a-luciferase, TCDD 10 nM. Here is the method:
All experiments were conducted as described previously unless stated otherwise. COS-7 cells were seeded onto 24-well plate until approximately 65% confluency. The cells were transfected with ARNT-1c expression plasmid (50 ng), AhR2 expression plasmid (5 ng), Cyp1a-firefly luciferase reporter plasmid (20 ng) and pRL-TK Renilla luciferase plasmid (2 ng) using Lipofectamine 3000 (Thermo Fisher Scientific) according to the manufacturer’s protocol. The pEGFP-C1 plasmid (Clontech, Tempe, AZ, USA) was used to assess the transfection efficiency. At 5 h post transfection, serially diluted test compounds at indicated concentration were added to the cells. Simultaneously, TCDD (10 nM) or indicated compounds with the highest concentration were added in the control wells. At 1 h post compound treatment, TCDD (10 nM) was added to all wells except the control wells. At 18 h post TCDD treatment, the medium was removed, and the cells washed with Dulbecco’s phosphate buffered saline (DPBS) and harvested using 1x Passive Lysis Buffer (Promega, Madison, WI, USA). The dual luciferase assay was carried out using a Dual-Luciferase Reporter Assay System (Promega, Madison, WI, USA) and an Orion L Microplate Luminometer (Titertek Berthold, Pforzheim, BW, Germany) as per manufacturer’s protocol. The relative light unit (RLU) values were normalized and expressed as toxic induced ratio (TIR). IC50 was determined using Prism 9.0 (GraphPad Software).

A further data set relates to colorectal cancer cells. The data set is described as follows: Cell viability assay (CCK-8), colorectal cancer cells. The format is cell-based. As to conditions: 24 h. How it is done: (§1) Chinese hamster ovary CHO cells, mouse fibroblast L929 cells, normal colon CCD18-Co cells, monkey kidney fibroblast COS-7 cells, colorectal cancer cells including HCT-116, RKO, SW480, SW620, CT26, and MC38 cells were purchased from ATCC (American Type Culture Collection). CHO, L929, Cos-7, and all cancer cells were maintained in RPMI 1640 or DMEM supplemented with 10% FBS (Gibco FBS; Thermo Fisher Scientific, Hanover Park, IL, USA) and 1% streptomycin/penicillin. CCD18-Co cells were cultured in high-glucose Dulbecco modified Eagle medium containing 10% FBS and 1% streptomycin/penicillin. All cells were grown in 5% CO2 at 37 °C. Mycoplasma testing was regularly performed every month using the BioMycoX Mycoplasma PCR Detection Kit (CellSafe, Yongin, Republic of Korea).
(§2) Cell viability was analyzed using a Cell Counting Kit-8 (Dojindo molecular technologies, Rockville, MD, USA). Cells were seeded in 96-well plates and treated with different concentrations of 7k. At the indicated time points, CCK-8 (10 μL/well) reagents were added to the cells, followed by further incubation at 37 °C for 90 min. The absorbance at 450 nm was measured using a plate reader (BioTek instruments, Winooski, VT, USA).

The subject of data set [4] is normal cells (CHO, L929, CCD-18Co). The data set is described as follows: Cell viability assay (CCK-8), normal cells. The format is cell-based. As to conditions: 24 h, 7k: CHO, SR-1: CCD-18Co. Here is the method:
as §1, §2

Where “and” joins values, the source holds several entries; their conditions need not be identical. Equal values may be shown once. Read-outs that look alike come from different tables or passages of the source.

T1 sequence (Q9YGV3 1-1027): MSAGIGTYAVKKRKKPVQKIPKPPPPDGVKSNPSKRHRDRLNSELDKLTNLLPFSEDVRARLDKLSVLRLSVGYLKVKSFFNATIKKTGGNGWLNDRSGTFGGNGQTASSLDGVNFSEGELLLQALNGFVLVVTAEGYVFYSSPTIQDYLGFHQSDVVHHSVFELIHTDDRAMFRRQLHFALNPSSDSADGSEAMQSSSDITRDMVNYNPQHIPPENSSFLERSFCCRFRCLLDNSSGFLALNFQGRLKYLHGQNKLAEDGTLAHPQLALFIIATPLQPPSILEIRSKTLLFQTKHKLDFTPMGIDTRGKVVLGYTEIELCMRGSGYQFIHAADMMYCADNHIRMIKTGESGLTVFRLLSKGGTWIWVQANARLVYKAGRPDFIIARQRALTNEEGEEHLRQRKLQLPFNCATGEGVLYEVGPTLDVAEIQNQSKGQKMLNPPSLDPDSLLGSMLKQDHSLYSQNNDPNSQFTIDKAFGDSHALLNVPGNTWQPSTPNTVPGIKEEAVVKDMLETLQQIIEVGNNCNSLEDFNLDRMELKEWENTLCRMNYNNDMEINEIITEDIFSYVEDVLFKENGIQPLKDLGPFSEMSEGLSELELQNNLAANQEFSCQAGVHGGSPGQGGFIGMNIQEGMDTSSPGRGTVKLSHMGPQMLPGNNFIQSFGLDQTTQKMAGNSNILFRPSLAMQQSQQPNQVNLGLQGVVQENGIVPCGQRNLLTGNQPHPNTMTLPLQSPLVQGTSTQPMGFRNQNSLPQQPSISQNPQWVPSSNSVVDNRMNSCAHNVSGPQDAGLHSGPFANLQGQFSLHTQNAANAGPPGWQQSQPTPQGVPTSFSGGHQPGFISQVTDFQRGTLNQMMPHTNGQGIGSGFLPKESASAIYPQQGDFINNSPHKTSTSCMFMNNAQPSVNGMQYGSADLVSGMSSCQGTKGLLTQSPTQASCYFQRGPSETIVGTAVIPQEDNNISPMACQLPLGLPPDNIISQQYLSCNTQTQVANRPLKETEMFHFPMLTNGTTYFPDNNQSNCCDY
T1 sequence (Q64FF9 1-503 partner): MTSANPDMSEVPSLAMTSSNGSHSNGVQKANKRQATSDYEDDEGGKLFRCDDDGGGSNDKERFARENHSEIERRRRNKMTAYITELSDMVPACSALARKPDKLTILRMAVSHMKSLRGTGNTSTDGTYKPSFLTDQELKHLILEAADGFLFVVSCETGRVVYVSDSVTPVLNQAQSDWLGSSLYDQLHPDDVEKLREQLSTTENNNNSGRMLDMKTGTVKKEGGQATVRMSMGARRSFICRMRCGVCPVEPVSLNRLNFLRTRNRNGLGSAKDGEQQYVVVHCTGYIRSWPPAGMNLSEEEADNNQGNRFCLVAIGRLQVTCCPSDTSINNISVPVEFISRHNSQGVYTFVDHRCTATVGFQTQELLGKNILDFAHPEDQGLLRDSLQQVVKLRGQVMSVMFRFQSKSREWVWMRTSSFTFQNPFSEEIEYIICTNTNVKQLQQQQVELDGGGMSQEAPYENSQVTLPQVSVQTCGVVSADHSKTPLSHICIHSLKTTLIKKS

Turning to `COc1ccc(-c2cc(=O)c3ccccc3o2)cc1OC` [3′,4′-dimethoxyflavone, reference compound], in the data set on MC38 tumor, the “tumor growth inhibition (TGI)” value was determined as 37%.
In the case of `C[C@@H](CO)NC(=O)c1cc(-c2ccc(Cl)cc2)nn(-c2cnn(C)c2)c1=O` [BAY 2416964], on AhR [1], the IC50 was 341 nM.
Consider `C[C@@H](CO)NC(=O)c1cc(-c2ccc(Cl)cc2)nn(-c2cccc(F)c2)c1=O` [BAY-128], for which the concentration for half-maximal inhibition (IC50) at AhR [1] was 39.9 nM.
As for `CC(C)n1cc2nc(-c3ccccc3)nc(NCCc3c[nH]c4ccccc34)c2n1` [Compound 7a], in the data set on AhR [2], the “AhR Antagonist Activity at 100 nM” value is listed as “+”.
`CC(C)n1cc2nc(-c3ccc(C#N)cc3)nc(NCCc3c[nH]c4ccccc34)c2n1` [Compound 7b]: in the data set with AhR [2], the “AhR antagonistic activity in zebrafish, in words” value (“AhR antagonistic activity” below) was “better activity compared with those of the hit compound” and the “AhR Antagonist Activity at 100 nM” value is listed as “++”.
`CC(C)n1cc2nc(-c3cccc(C#N)c3)nc(NCCc3c[nH]c4ccccc34)c2n1` [Compound 7c]: on AhR [3], half-maximal inhibition (IC50) required 171 nM. For the same molecule, the “AhR Antagonist Activity at 100 nM” value in the data set on AhR [2] is recorded as “++++”.
`CC(=O)c1cccc(-c2nc(NCCc3c[nH]c4ccccc34)c3nn(C(C)C)cc3n2)c1` [Compound 7d]: in the data set with AhR [2], the “AhR antagonistic activity” value is on record as “didn’t show AhR inhibition” and the “AhR Antagonist Activity at 100 nM” value is listed as “-”.
In the same order, the values of `CC(C)n1cc2nc(-c3cccc(C(F)(F)F)c3)nc(NCCc3c[nH]c4ccccc34)c2n1` [Compound 7e] are “didn’t show AhR inhibition” and “-”.
In the case of `CC(C)n1cc2nc(-c3cccc(N)c3)nc(NCCc3c[nH]c4ccccc34)c2n1` [Compound 7f], in the data set on AhR [2], the “AhR antagonistic activity” value is given as “didn’t show AhR inhibition” and the “AhR Antagonist Activity at 100 nM” value is given as “-”.
The matching figures for `CCn1cc2nc(-c3cccc(C#N)c3)nc(NCCc3c[nH]c4ccccc34)c2n1` [Compound 7g]: “lower activity than that of the isopropyl compound” and “+++”.
In the same order, the values of `CCCCn1cc2nc(-c3cccc(C#N)c3)nc(NCCc3c[nH]c4ccccc34)c2n1` [Compound 7h] are “lower activity than that of the isopropyl compound” and “+++”.
In the same order, the values of `CC(C)n1cc2nc(-c3cccc(C#N)c3)nc(NCCc3c[nH]c4ccc(O)cc34)c2n1` [Compound 7i] are “decreased AhR inhibition” and “-”.
For `CC(C)n1cc2nc(-c3cccc(F)c3)nc(NCCc3c[nH]c4ccccc34)c2n1` [Compound 7j], on AhR [3], the half-inhibitory concentration (IC50) is 412 nM and 413 nM. The “AhR Antagonist Activity at 100 nM” value in the data set on AhR [2] is listed as “++++”.
Turning to `CC(C)n1cc2nc(-c3cccc(OC(F)(F)F)c3)nc(NCCc3c[nH]c4ccccc34)c2n1` [Compound 7l], on AhR [3], inhibition was half-maximal at 301 nM (IC50). In the data set with AhR [2], the “AhR antagonistic activity” value is reported as “decreased activities” and the “AhR Antagonist Activity at 100 nM” value was “+++”.
Turning to `CC(C)n1cc2nc(-c3cccc(C(=O)OC(C)(C)C)c3)nc(NCCc3c[nH]c4ccccc34)c2n1` [Compound 7m], in the data set on AhR [2], the “AhR antagonistic activity” value is on record as “decreased activities” and the “AhR Antagonist Activity at 100 nM” value is reported as “-”.
In the case of `CC(C)c1cnn2c(N[C@H]3CCc4[nH]c5ccccc5c4C3)nc(-c3cncc(F)c3)nc12` [IK-175], the IC50 at AhR [1] was less than 500 nM.
For the molecule `Cc1ccccc1-c1cc2cc(NC(=O)c3ccnn3C)ccc2[nH]1` [PX-A24590], on AhR [1], the IC50 is 60 nM.
With `CC(C)n1cnc2c(NCCc3ccc(O)cc3)nc(-c3csc4ccccc34)nc21` [SR-1, StemRegenin 1, reference compound], the “cell proliferation / viability of colorectal cancer cells” value in the data set with colorectal cancer cells is “reduced the viability of colorectal cancer cells”. The results for the IC50 against AhR [3] and at AhR [1] were 198 nM and 127 nM, respectively. For the same molecule, the “AhR Antagonist Activity at 100 nM” value in the data set with AhR [2] is “+++”. Besides, in data set [4], the “cell viability of normal cells” value is recorded as “little effect”.
